Measurements reported in patent publication US20250085284A1, “PRODUCTS AND USES THEREOF FOR PREDICTING THE SENSITIVITY OF A SUBJECT TO CANCER IMMUNOTHERAPY INVOLVING AN ANTI-PD(L)1 AND AN ANTI-ANGIOGENIC AGENT, AND FOR SELECTING OPTIMIZED THERAPY” (INSTITUT GUSTAVE ROUSSY, priority 2023, published 2025).

What was measured:
[1] = PEMBIB trial, mesothelioma expansion cohort: safety and tolerability (CTCAE Version 4.03); design: species or system human; conditions: in vivo
[2] = tested on: plasma cytokines, chemokines and soluble angiogenic factors; test: Plasma cytokine, chemokine and soluble factor titration on treatment (D-7, C1D1, C1D8); type: in vivo, human
Method: Frozen plasma and frozen tumor biopsy supernatants were subsequently thawed, centrifuged for 15 min at 1,000 g, then titrated using Bio-Plex Pro™ Human Chemokine Panel (40-Plex, ref. 171AK99MR2, Bio-rad), Angiogenesis Panel 1 (human) (ref. K151P3S-1, Meso Scale Discovery), Human PD-1 and PD-L1 antibody sets (ref. F214A-3 & F214C-3, Meso Scale Discovery) following manufacturer's instructions. Each sample was run twice with the average value of the doublet taken as the result. Acquisitions were done on Bio-Plex 200™ System and MESO™ QuickPlex SQ120 readers. Raw data from Meso Scale Discovery's kit were analyzed with MSD's Discovery Workbench 4.0.
Inventors took advantage of the one-week lead-in nintedanib monotherapy prior to the pembrolizumab introduction to analyze the respective effects of the two drugs. Sequential blood sampling was performed at baseline and on-treatment in order to identify selective phannacodynamic markers of Nintedanib and Pembrolizumab that occurred upon treatment in all patients and independently from the treatment efficacy. Plasma was obtained from blood draws collected at baseline (D-7), one week after the nintedanib monotherapy lead-in (C1D1) and one week after the addition of pembrolizumab (C1D8). […] CCL15 and CXCL10 were also decreasing in all patients upon Nintedanib monotherapy but this decrease was only significant for patients with DCB (FIG. 10A).

[3] = tested on: advanced mesothelioma; conditions: monotherapy; n=118; cited from earlier work
[4] = D-7 vs C1D1, one-week nintedanib monotherapy, patients with both DCB and No DCB
[5] = nintedanib monotherapy week, all patients, only significant for DCB
[6] = one week after initiation of pembrolizumab, DCB and No DCB
[7] = upon pembrolizumab addition (C1D1 to C1D8), only significant in No DCB

COC(=O)c1ccc2c(c1)NC(=O)/C2=C(\Nc1ccc(N(C)C(=O)CN2CCN(C)CC2)cc1)c1ccccc1 [nintedanib]
tolerability of nintedanib 150 mg BID versus 200 mg BID [1]: better tolerated | blood Angiopoietin-2 level [2, 4]: significantly decreased | blood CCL21 level [2, 4]: significantly decreased | blood CCL23 level [2, 4]: significantly decreased | plasma CCL8 level ([2]; first week of nintedanib, patients with DCB): tended to decrease | plasma CCL8 level ([2]; first week of nintedanib, patients with No DCB): significantly increased | plasma CCL15 level [2, 5]: decreasing | plasma CXCL10 level [2, 5]: decreasing

pembrolizumab
objective response rate (ORR; BORR per RECIST1.1) [3]: 8% | circulating soluble PD-1 (sPD1) median level ([2]; C1D8, one week after addition of pembrolizumab to nintedanib, both DCB and No DCB): above 10 ng/mL | plasma CCL19 level ([2]; after one week of combination with pembrolizumab, all patients): increase | circulating soluble PD-L1 (sPDL1) level ([2]; one week after addition of pembrolizumab, all patients): significantly increased | CXCL9 serum level [2, 6]: significant rise | CXCL10 serum level [2, 6]: significant rise | CXCL11 serum level [2, 6]: significant rise | CXCL13 serum level [2, 6]: significant rise | plasma CCL3 level [2, 7]: increased | plasma CCL8 level [2, 7]: increased | plasma CCL17 level [2, 7]: increased | plasma CCL23 level [2, 7]: increased | plasma CXCL2 level [2, 7]: decreased
